Data as given in US4197310A, “Thiophenepropionitriles” (American Cyanamid Company, priority 1979, dated 1980).

Legend:
[1] = test system: Adjuvant Induced Arthritis in Rats; test: Adjuvant-induced arthritis in the rat; assay type: in vivo, rat (Royal Hart, Wistar strain)
Procedure: (B) Adjuvant-induced arthritis in the rat […] Groups of three Royal Hart, Wistar strain rats weighing 200±10 g. each were injected intradermally in the right hind paw with Freund's adjuvant (dried human tubercle bacilli in a mineral oil vehicle) at a dose of 2 mg./kg. of body weight. The test compounds were administered orally in a 1.5% starch vehicle at various doses once daily on days 0 to 13 post challenge. Control rats were treated in a similar manner, but given only starch vehicle. On the 14th and 21st day post challenge the diameter of the injected paw was measured by micrometer caliper. The volume of inflamed paws were estimated from these measurements and the effects of each compound are expressed as percent inhibition of swelling as compared to controls. Table II records the results of these tests conducted with representative compounds of this invention and known anti-inflammatory agents. The active compounds of this invention suppress the progression of the arthritis and associated joint deterioration.

[2] = test system: Carrageenin-Induced Edema; test: Carrageenin-induced edema in the rat; assay type: in vivo, rat (Royal Hart, Wistar strain); conditions: oral gavage, 5 hours after drug, 4 hours after carrageenin, dose not given, * p = <.05 by t test
Procedure: (A) Carrageenin-induced edema in the rat
In determining the acute anti-inflammatory activity of the cis-2-[2(or 3)-thenoyl]-3-hydroxy-2-alkenenitriles of the present invention, Royal Hart, Wistar strain rats, ranging in weight from 80 to 90 grams were used. The rats were fasted overnight prior to dosing but had free access to water. The test compounds were administered in aqueous suspension, by gavage, in a volume of 1.7 ml. per 50 grams of rat [corresponds to hydration volume used by Winter, et al., Proc. Soc. […] The phlogistic agent used was carrageenin prepared as a sterile 1% suspension in 0.9% aqueous sodium chloride for routine testing. A volume of 0.05 ml. was injected through a 26 gauge needle into the plantar tissue of the right hind paw. Measurements were made 5 hours after drug administration (4 hours after carrageenin challenge). Volumes of both the normal and carrageenin inflammed feet were determined. The difference between the two measurements is considered to be the increased edema due to the carrageenin administration. Results are expressed as a C/T efficacy ratio (edema of control animals/edema of treated animals).

[3] = oral 50 mg./kg. daily days 0 to 13, * (where printed) p = <.05 by t test
[4] = oral 50 mg./kg. daily days 0 to 13, no asterisk
[5] = oral 25 mg./kg. daily days 0 to 13, * p = <.05 by t test

Row | Compound | % Inhibition of Swelling, Day 14 [1, 3] [%] | % Inhibition of Swelling, Day 21 [1, 4] [%] | C/T Ratio (edema of control animals/edema of treated animals) [2] | % Inhibition of Swelling, Day 14 [1, 5] [%] | % Inhibition of Swelling, Day 21 [1, 5] [%]
1 | C/C(O)=C(\C#N)C(=O)c1cccs1 [Cis-2-(2-thenoyl)-3-hydroxycrotononitrile] | 42 | 6 | 2.04 |  | 
2 | C/C(O)=C(\C#N)C(=O)c1ccsc1 [Cis-2-(3-thenoyl)-3-hydroxycrotononitrile] | 38 | 19 | 2.42 |  | 
3 | C/C(O)=C(\C#N)C(=O)c1ccc(Cl)s1 [Cis-2-(5-chloro-2-thenoyl)-3-hydroxycrotononitrile] |  |  |  | 49 | 31
